Tested on: U937 (histiocytic lymphoma) cells
Test: Toxicity assay in leukemic cell line (cell counting)
Format: cell-based, human
Conditions: increasing concentrations
Protocol: Human leukemic cell lines, HS-Sultan (Burkitt's lymphoma) (European Collection of Cell Cultures, Salisbury, UK), Jurkat (T-cell acute lymphoblastic leukemia) and U937 (histiocytic lymphoma) (American Type Culture Collection, Manassas, USA), were adjusted to 1 × 10^9 cells/l in RPMI-1640 medium containing 1% Penicillin/Streptomycin and 10% fetal bovine serum and grown in triplicate in the presence or absence of CAM or PA–CAM conjugates for 4 days at 37°C, under a humidified 5% CO2 atmosphere. The medium was changed after 2 days of exposure; CAM or PA-CAM addition was repeated after medium change to keep the appropriate drug concentration. Aliquots were collected daily and counted in a CELL-DYN 3700 Hematology Analyzer. For cell necrosis and apoptosis assays, samples (10^6 cells) were collected daily and determined using the Annexin V-PE Apoptosis Detection Kit I (BD Pharmingen) for flow cytometry ([29]), as described by the manufacturer. Flow cytometry data were analyzed using the FlowJo flow cytometry analysis software. Necrotic and apoptotic cells were expressed as a percentage of total cells.
Figure S2. Toxicity assays in leukemic cell lines. […] Aliquots were collected daily and counted in a CELL-DYN 3700 Hematology Analyzer.

Question: With `NCCCN(CCCCN(Cc1ccccc1)Cc1ccccc1)C(=O)CCC(=O)N[C@H](CO)[C@H](O)c1ccc([N+](=O)[O-])cc1` [Compound 4] as the compound, how does the “sensitivity of cells (cell counting)” value read?
Answer: insensitive

— article PMC4117768, “Conjugation with polyamines enhances the antibacterial and anticancer activity of chloramphenicol” (Nucleic Acids Research, 2014)
